{"source": "patent US9919034B2", "about": "“Methods of treating and prophylactically protecting mammalian patients infected by viruses classified in Baltimore group V” (priority 2014, dated 2018)", "key": {"NHBE cells [1]": {"tested_on": "NHBE cells"}, "RSV A2": {"tested_on": "RSV A2", "assay": "RSV yield in NHBE cells (titers in MA-104 cells)", "type": "cell-based", "details": "all treatments (5 μM, 0.5 μM, 0.1 μM), 48 hours post infection"}, "NHBE cells [2]": {"tested_on": "NHBE cells", "remark": "listed apart in the source"}, "[3]": {"tested_on": "influenza A/California/07/2009(H1N1)pdm09 virus", "type": "cell-based"}, "Vero 76 cells": {"tested_on": "Vero 76 cells", "assay": "Toxicity in Vero 76 cells (crystal violet staining density)"}, "vaccinia, strain WR": {"tested_on": "vaccinia, strain WR", "assay": "microbe, parasite or virus in culture", "type": "cell-based", "details": "read-out: EC50 (concentration reducing plaque numbers by 50%)"}, "NHBE cells [4]": {"tested_on": "NHBE cells", "assay": "Microscopy evaluation of treated NHBE cells (RV-14 study toxicity controls)"}, "NHBE cells [5]": {"tested_on": "NHBE cells", "assay": "Microscopy evaluation of treated NHBE cells (RSV study toxicity controls)", "details": "sham infected"}, "RV-14 (strain 1059)": {"tested_on": "RV-14 (strain 1059)", "assay": "RV-14 yield in NHBE cells (titers in HeLa-Ohio-1 cells)", "type": "cell-based, rhinovirus-14"}, "[6]": {"tested_on": "adenovirus 2, strain Miller", "assay": "Adenovirus yield in NHBE cells (titers in A-549 cells)", "type": "cell-based", "details": "for reduction in virus titers: vs untreated infected controls"}, "tRNA": {"tested_on": "tRNA", "details": "Lin et al., 1994; cited from earlier work"}, "MERS-CoV virus": {"tested_on": "MERS-CoV virus", "type": "cell-based"}, "VEEV": {"tested_on": "VEEV", "type": "cell-based"}, "A-72 cells": {"tested_on": "A-72 cells", "assay": "Cytotoxicity of ranpirnase in A-72 cells (morphology)", "details": "any of the concentrations tested, 4 days"}}, "note": "Read-outs that look alike come from different tables or passages of the source.", "data": [{"molecule": "ranpirnase", "values": [{"measurement": "viability of NHBE cells", "setting": "NHBE cells [1]", "value": "did not decrease the viability"}, {"measurement": "reduction in virus titers compared to untreated, infected controls", "setting": "RSV A2", "value": 2.3, "unit": "log"}, {"measurement": "virus titers after treatment", "setting": "RSV A2", "value": "undetectable levels"}, {"measurement": "SI (CC50/IC50)", "setting": "CHIV", "value": "over 18"}, {"measurement": "inhibition of CHIV", "setting": "CHIV", "value": "robust inhibition"}, {"measurement": "microscopy evaluation of treated NHBE cells (toxicity)", "setting": "NHBE cells [2]", "value": "no toxicological phenomena"}, {"measurement": "activity against influenza A/California/07/2009(H1N1)pdm09 virus (virus titer)", "setting": "[3]", "value": "statistically significant and dose-dependent"}, {"measurement": "SI (CC50/IC50)", "setting": "EBOV", "value": "40-77"}, {"measurement": "inhibition of EBOV", "setting": "EBOV", "value": "robust inhibition"}, {"measurement": "toxicity", "setting": "Vero 76 cells; 100 μM", "value": "not toxic"}, {"measurement": "toxicity", "setting": "Vero 76 cells; dilutions used in the assay", "value": "Neither ranpirnase nor cidofovir was toxic"}, {"measurement": "EC50", "setting": "vaccinia, strain WR", "value": 3.8, "unit": "µM"}, {"measurement": "microscopy evaluation of treated NHBE cells (toxicity)", "setting": "NHBE cells [4]", "value": "no toxicological phenomena"}, {"measurement": "microscopy evaluation of treated NHBE cells (toxicity)", "setting": "NHBE cells [5]", "value": "no toxicological phenomena"}, {"measurement": "reduction in virus titers", "setting": "RV-14 (strain 1059); 1 μM, 4 days post infection", "value": "~1", "unit": "log"}, {"measurement": "drop in virus titer", "setting": "RV-14 (strain 1059); 5 μM, 4 days post infection", "value": "~1.67", "unit": "log 10"}, {"measurement": "drop in virus titer", "setting": "RV-14 (strain 1059); 10 μM, 4 days post infection", "value": "~1.67", "unit": "log 10"}, {"measurement": "drop in virus titer", "setting": "RV-14 (strain 1059); 50 μM, 4 days post infection", "value": "~1.67", "unit": "log 10"}, {"measurement": "reduction in virus titers", "setting": "[6]; 5 μM", "value": "~1", "unit": "log"}, {"measurement": "reduction in virus titers", "setting": "[6]; 10 μM", "value": "~1", "unit": "log"}, {"measurement": "drop in virus titer", "setting": "[6]; 50 μM, vs placebo", "value": "approximately three"}, {"measurement": "virus titers after treatment", "setting": "[6]; all treatments except the lowest dose", "value": "undetectable levels"}, {"measurement": "degradation of tRNA", "setting": "tRNA", "value": "degrades tRNA very effectively"}, {"measurement": "activity against MERS-CoV virus compared with SARS protease inhibitor and Infergen (viral titer)", "setting": "MERS-CoV virus", "value": "far more active"}, {"measurement": "inhibition of VEEV", "setting": "VEEV", "value": "robust inhibition"}, {"measurement": "cytotoxic effect (visual morphology)", "setting": "A-72 cells", "value": "no apparent cytotoxic effect"}]}, {"molecule": "Nc1ccn([C@H]2CC[C@@H](CO)O2)c(=O)n1", "note": "[2′3′-dideoxycytidine, reference compound]", "values": [{"measurement": "microscopy evaluation of treated NHBE cells (toxicity)", "setting": "NHBE cells [2]", "value": "no toxicological phenomena"}, {"measurement": "microscopy evaluation of treated NHBE cells (toxicity)", "setting": "NHBE cells [5]", "value": "no toxicological phenomena"}, {"measurement": "inhibition of virus replication (positive control)", "setting": "[6]; NHBE cells, adenovirus MOI 0.1", "value": "inhibited virus replication as expected"}]}, {"molecule": "Nc1ccn(C[C@@H](CO)OCP(=O)(O)O)c(=O)n1", "note": "[cidofovir, reference compound]", "values": [{"measurement": "toxicity", "setting": "Vero 76 cells; dilutions used in the assay", "value": "Neither ranpirnase nor cidofovir was toxic"}, {"measurement": "EC50", "setting": "vaccinia, strain WR; Orthopoxvirus vaccinia, Vero 76, 48 h", "value": 10, "unit": "µM"}]}, {"molecule": "CCOC(=O)c1ccc(OCCC2CCN(c3ccc(C)nn3)CC2)cc1", "note": "[pirodavir, reference compound]", "values": [{"measurement": "microscopy evaluation of treated NHBE cells (toxicity)", "setting": "NHBE cells [4]", "value": "no toxicological phenomena"}, {"measurement": "activity against RV-14", "setting": "RV-14 (strain 1059); 0.0032 μg/ml, NHBE cells", "value": "inactive"}, {"measurement": "inhibition of virus replication (positive control)", "setting": "RV-14 (strain 1059); 10 and 3.2 μg/ml", "value": "inhibited virus replication as expected"}]}]}
